Here are results for two molecules from patent publication US12510537B2, “High throughput drug screening methods” (NERD BIO LLC, priority 2020, dated 2025).

pIC50: −log10 of the molar value.

Assay [1] has as its target BCL6 (Homo sapiens, UniProt P41182). To be noted: well-characterized Boehringer Ingelheim inhibitor; read-out: in vitro IC50; cited from earlier work.
For assay [2], the target named is GSK3beta (Homo sapiens, UniProt P49841). Kind of assay: UV-B induced denaturation of cell lysates, immunoblot of soluble fraction, GSK3beta. The assay is classed as binding. To be noted: lysates exposed to UV-B for 4 min; FIG. 29B. For orientation: In western blotting, separated proteins are transferred to a membrane and probed.
GSK3beta, sequence (P49841 whole entry, species assumed): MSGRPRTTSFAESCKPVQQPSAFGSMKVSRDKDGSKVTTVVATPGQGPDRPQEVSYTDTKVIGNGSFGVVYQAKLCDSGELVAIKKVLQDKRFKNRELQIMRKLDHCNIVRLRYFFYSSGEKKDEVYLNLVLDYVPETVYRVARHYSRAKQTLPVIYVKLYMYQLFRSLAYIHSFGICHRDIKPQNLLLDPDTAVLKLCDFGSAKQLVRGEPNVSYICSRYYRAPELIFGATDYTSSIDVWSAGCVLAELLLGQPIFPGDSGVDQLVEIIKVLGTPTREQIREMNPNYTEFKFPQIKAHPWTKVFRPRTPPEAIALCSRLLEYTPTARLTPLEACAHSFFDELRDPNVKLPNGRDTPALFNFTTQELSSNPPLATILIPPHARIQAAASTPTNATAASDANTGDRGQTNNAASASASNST

As for `CNC(=O)COc1cc2cc(Nc3nc(N4CCC(C(=O)N(C)C)CC4)ncc3Cl)cc(OC)c2n(C)c1=O` [BI-3812], in assay [1], the pIC50 – broadly, −log10 of the IC50, conventionally taken in molar units – is roughly 8.52. For the molecule `Cc1c[nH]c(-c2cnc(NCCNc3ccc(C#N)cn3)nc2-c2ccc(Cl)cc2Cl)n1` [CHIR99021], the “stabilization of GSK3beta protein from UV-B induced denaturation” value in assay [2] is recorded as “stabilization of the GSK3beta protein”.
